Patent US20260042764A1, “COMPOSITIONS AND METHODS FOR INHIBITION OF KRAS” (TheRas, Inc., priority 2022, published 2026)

What was measured:
[1] = biological target: T1, Avi-KRAS G12R (1-169) GppNHp/RAF1 RBD-3xFLAG (52-151) (Homo sapiens, UniProt P01116, G12R); test: Raf1-KRAS G12R-GppNHP disruption HTRF assay (Biological Example 1); assay type: binding
T1 construct: Avi-KRAS G12R (1-169)
How it was run: (§1)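 HTRF PPI disruption; buffer 50 mM Tris pH 7.5, 100 mM NaCl, 5 mM MgCl2, 0.1% BSA, 0.01% Tween, 10% DMSO. Protein mix 1 h RT shaking, reagent mix 1 h RT shaking. Data as % activity vs DMSO (100%).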

[2] = biological target: T2, Avi-KRAS WT (1-169) GppNHp/RAF1 RBD-3xFLAG (52-151) (Homo sapiens, UniProt P01116); test: Raf1-KRAS WT-GppNHP disruption HTRF assay (Biological Example 1); assay type: binding
T2 construct: Avi-KRAS WT (1-169)
How it was run: as §1

[3] = biological target: T3, Avi-KRAS G12V (1-169) GppNHp/RAF1 RBD-3xFLAG (52-151) (Homo sapiens, UniProt P01116, G12V); test: Raf1-KRAS G12V-GppNHP disruption HTRF assay (Biological Example 1); assay type: binding
T3 construct: Avi-KRAS G12V (1-169)
How it was run: as §1

[4] = biological target: T4, Avi-KRAS G12D (1-169) GppNHp/RAF1 RBD-3xFLAG (52-151) (Homo sapiens, UniProt P01116, G12D); test: Raf1-KRAS G12D-GppNHP disruption HTRF assay (Biological Example 1); assay type: binding
T4 construct: Avi-KRAS G12D (1-169)
How it was run: as §1

SW620 cells (KRAS G12V) = test: Cell-based pERK HTRF assay in SW620 cell (Biological Example 4)
How it was run: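 Read-out: HTRF pERK signal (excitation 320 nm, emission 615 nm) from lysates of SW620 cells after 4 h compound exposure. Dose range was 9 points, half-log steps from 1 μM, in 0.25% DMSO; antibody incubation ran 4–24 h at room temperature.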

[5] = biological target: T5, Avi-KRAS G12V (2-169) GTP/RAF1 RBD-3xFLAG (51-131) (Homo sapiens, UniProt P01116, G12V); test: Raf1-KRAS G12V-GTP disruption HTRF assay (Biological Example 3); assay type: binding; conditions: KRAS G12V, GTP-loaded
T5 construct: Avi-KRAS G12V (2-169)
How it was run: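 Each KRAS-GTP/RAF1 RBD complex at 50 nM, with 75 nM 3xFLAG-RAF1 RBD (51-131)-Avi, in 50 mM Tris pH 7.5, 100 mM NaCl, 5 mM MgCl2, 0.1% BSA, 0.01% Tween 20, 10% DMSO. Compounds titrated from 30 μM, 10-point 3x series; 1 h at room temperature with shaking. HTRF read, activity as percent of DMSO.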

[6] = KRAS G12R, GppNHp-loaded, class symbols
[7] = KRAS WT, GppNHp-loaded, class symbols
[8] = KRAS G12V, GppNHp-loaded, class symbols
[9] = KRAS G12D, GppNHp-loaded, class symbols
[10] = Homo sapiens, SW-620, SW620 (KRAS G12V) cells
[11] = Homo sapiens, SW-620, SW620 (KRAS G12V) cells, pERK HTRF, class symbols
[12] = KRAS G12R, GppNHp-loaded, Table 11
[13] = KRAS WT, GppNHp-loaded, Table 11
[14] = KRAS G12V, GppNHp-loaded, Table 11
[15] = KRAS G12D, GppNHp-loaded, Table 11
[16] = Homo sapiens, SW-620, SW620 (KRAS G12V) cells, pERK HTRF
[17] = SW620 (KRAS G12V) cells, pERK HTRF

T4 sequence (P01116 1-169 isoform P01116-2 G12D): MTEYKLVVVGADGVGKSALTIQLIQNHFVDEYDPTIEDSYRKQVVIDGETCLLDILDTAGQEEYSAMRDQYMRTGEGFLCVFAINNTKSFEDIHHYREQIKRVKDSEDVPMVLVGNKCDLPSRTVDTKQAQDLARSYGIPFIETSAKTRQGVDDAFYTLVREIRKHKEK
T5 sequence (P01116 2-169 isoform P01116-2 G12V): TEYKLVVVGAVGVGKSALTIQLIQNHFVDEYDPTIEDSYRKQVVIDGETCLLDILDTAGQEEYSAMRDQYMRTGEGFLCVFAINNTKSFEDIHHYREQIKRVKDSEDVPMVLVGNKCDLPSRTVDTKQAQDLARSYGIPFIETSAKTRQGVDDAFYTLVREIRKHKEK
T3 sequence (P01116 1-169 isoform P01116-2 G12V): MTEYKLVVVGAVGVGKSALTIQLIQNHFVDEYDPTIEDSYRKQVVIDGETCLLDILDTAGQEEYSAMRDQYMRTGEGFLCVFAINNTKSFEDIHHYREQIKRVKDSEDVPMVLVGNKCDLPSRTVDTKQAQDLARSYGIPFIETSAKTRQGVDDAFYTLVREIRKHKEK
T1 sequence (P01116 1-169 isoform P01116-2 G12R): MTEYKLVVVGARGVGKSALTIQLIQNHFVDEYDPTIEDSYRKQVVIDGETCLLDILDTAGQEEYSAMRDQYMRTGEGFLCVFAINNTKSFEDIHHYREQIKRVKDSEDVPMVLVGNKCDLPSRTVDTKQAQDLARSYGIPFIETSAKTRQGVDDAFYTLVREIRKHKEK
T2 sequence (P01116 1-169 isoform P01116-2): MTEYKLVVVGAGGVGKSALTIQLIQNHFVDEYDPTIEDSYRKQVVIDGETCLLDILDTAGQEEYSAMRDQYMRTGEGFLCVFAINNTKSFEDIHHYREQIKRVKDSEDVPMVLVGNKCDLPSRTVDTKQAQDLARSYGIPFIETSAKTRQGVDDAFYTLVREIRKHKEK

| SMILES | IC50 [1, 6] [nM] | IC50 [2, 7] [nM] | IC50 [3, 8] [nM] | IC50 [4, 9] [nM] | IC50 (SW620 cells (KRAS G12V); [10]) [nM] | IC50 (SW620 cells (KRAS G12V); [11]) [nM] | IC50 [5] [nM] | IC50 [1, 12] [nM] | IC50 [2, 13] [nM] | IC50 [3, 14] [nM] | IC50 [4, 15] [nM] | IC50 (SW620 cells (KRAS G12V); [16]) [nM] | IC50 ([1]; KRAS G12R-GppNHp/RAF1 RBD HTRF) [nM] | IC50 ([2]; KRAS WT-GppNHp/RAF1 RBD HTRF) [nM] | IC50 ([3]; KRAS G12V-GppNHp/RAF1 RBD HTRF) [nM] | IC50 ([4]; KRAS G12D-GppNHp/RAF1 RBD HTRF) [nM] | IC50 (SW620 cells (KRAS G12V); SW620 (KRAS G12V) cells) [nM] | IC50 (SW620 cells (KRAS G12V); [17]) [nM] |
| --- | --- | --- | --- | --- | --- | --- | --- | --- | --- | --- | --- | --- | --- | --- | --- | --- | --- | --- |
| C[C@H]1Cn2nc(C(=O)N(C)C)cc2CN1c1nc(OC[C@@]23CCCN2C[C@H](F)C3)nc2c(F)c(-c3ccc(F)c4sc(N)c(C#N)c34)c(C(F)(F)F)cc12 (atropisomer, axis not shown) [Compound 610] | 100 to 1000 | 100 to 1000 | 100 to 1000 | < 100 | < 100 | < 100 | 100 to 1000 | – | – | – | – | – | – | – | – | – | – | – |
| Cc1c(C(=O)N2CCCC2)nn2c1CN(c1nc(OCC34CCCN3CC(F)C4)nc3c(F)c(-c4ccc(F)c5sc(N)c(C#N)c45)c(C(F)(F)F)cc13)CC2 (centres unmarked) [Compound 744] | 100 to 1000 | 100 to 1000 | 100 to 1000 | 100 to 1000 | < 100 | < 100 | 100 to 1000 | – | – | – | – | – | – | – | – | – | – | – |
| N#Cc1c(N)sc2c(F)ccc(-c3c(C(F)(F)F)cc4c(N5CCn6nc(C(=O)N7CCOCC7)cc6C5)nc(OCC56CCCN5CC(F)C6)nc4c3F)c12 (centres unmarked) [Compound 646] | < 100 | 100 to 1000 | < 100 | < 100 | < 100 | < 100 | 100 to 1000 | – | – | – | – | – | – | – | – | – | – | – |
| N#Cc1c(N)sc2c(F)ccc(-c3c(C(F)(F)F)cc4c(N5CCNS(=O)(=O)CC5)nc(OC[C@@]56CCCN5C[C@H](F)C6)nc4c3F)c12 [Compound 245] | – | – | – | – | < 100 | – | 100 to 1000 | < 100 | < 100 | 100 to 1000 | < 100 | < 100 | – | – | – | – | – | – |
| CC(=O)N1CC[C@H](N(CCF)c2nc(OC[C@@]34CCCN3C[C@H](F)C4)nc3c(F)c(-c4ccc(F)c5sc(N)c(C#N)c45)c(C(F)(F)F)cc23)C1 (atropisomer, axis not shown) [Compound 622] | < 100 | < 100 | < 100 | < 100 | < 100 | < 100 | 100 to 1000 | – | – | – | – | – | – | – | – | – | – | – |
| N#Cc1c(N)sc2c(F)ccc(-c3c(C(F)(F)F)cc4c(N5C[C@H]6C[C@@H]5CO6)nc(OC[C@@]56CCCN5C[C@H](F)C6)nc4c3F)c12 (single isomer, unassigned) [Compound 287] | – | – | – | – | < 100 | – | 100 to 1000 | – | – | – | – | < 100 | 100 to 1000 | 100 to 1000 | 100 to 1000 | 100 to 1000 | – | – |
| CCN(c1nc(OC[C@@]23CCCN2C[C@H](F)C3)nc2c(F)c(-c3ccc(F)c4sc(N)c(C#N)c34)c(C(F)(F)F)cc12)[C@H]1C[C@@H]2CN(C)C(=O)N2C1 (atropisomer, axis not shown) [Compound 605] | < 100 | < 100 | 100 to 1000 | < 100 | < 100 | < 100 | 100 to 1000 | – | – | – | – | – | – | – | – | – | – | – |
| CCN(c1nc(OC[C@@]23CCCN2C[C@H](F)C3)nc2c(F)c(-c3ccc(F)c4sc(N)c(C#N)c34)c(C(F)(F)F)cc12)[C@H]1CCN(C(=O)O[C@@H]2CCOC2)C1 (atropisomer, axis not shown) [Compound 683] | < 100 | < 100 | < 100 | < 100 | < 100 | < 100 | ≤ 100 | – | – | – | – | – | – | – | – | – | – | – |
| CCN(c1nc(OC[C@@]23CCCN2C[C@H](F)C3)nc2c(F)c(-c3ccc(F)c4sc(N)c(C#N)c34)c(C(F)(F)F)cc12)[C@H]1CC(=O)N2CCC[C@@H]12 (atropisomer, axis not shown; (aS)) [Compound 697, 2-amino-4-((S)-4-(ethyl((1S,7aS)-3-oxohexahydro-1H-pyrrolizin-1-yl)amino)-8-fluoro-2-(((2R,7aS)-2-fluorotetrahydro-1H-pyrrolizin-7a(5H)-yl)methoxy)-6-(trifluoromethyl)quinazolin-7-yl)-7-fluorobenzo[b]thiophene-3-carbonitrile] | < 100 | < 100 | < 100 | < 100 | < 100 | < 100 | ≤ 100 | – | – | – | – | – | – | – | – | – | – | – |
| CCN(c1nc(OC[C@@]23CCCN2C[C@H](F)C3)nc2c(F)c(-c3ccc(F)c4sc(N)c(C#N)c34)c(C(F)(F)F)cc12)[C@H]1CCN(C(=O)C2CC2)[C@@H]1C (atropisomer, axis not shown) [Compound 579] | < 100 | < 100 | < 100 | < 100 | < 100 | < 100 | 100 to 1000 | – | – | – | – | – | – | – | – | – | – | – |
| CN(c1nc(OC[C@@]23CCCN2C[C@H](F)C3)nc2c(F)c(-c3ccc(F)c4sc(N)c(C#N)c34)c(C(F)(F)F)cc12)[C@H]1C[C@@H](O)C1 [Compound 19, 2-amino-7-fluoro-4-((S)-8-fluoro-2-(((2R,7aS)-2-fluorotetrahydro-1H-pyrrolizin-7a(5H)-yl)methoxy)-4-(((1s,3R)-3-hydroxycyclobutyl)(methyl)amino)-6-(trifluoromethyl)quinazolin-7-yl)benzo[b]thiophene-3-carbonitrile] | – | – | – | – | – | – | 100 to 1000 | < 100 | < 100 | < 100 | < 100 | – | – | – | – | – | < 100 | < 100 |
| CCN(c1nc(OC[C@@]23CCCN2C[C@H](F)C3)nc2c(F)c(-c3ccc(F)c4sc(N)c(C#N)c34)c(C(F)(F)F)cc12)[C@H]1CC(=O)N(C2CC2)C1 (atropisomer, axis not shown) [Compound 615] | < 100 | < 100 | < 100 | < 100 | < 100 | < 100 | ≤ 100 | – | – | – | – | – | – | – | – | – | – | – |
| Cc1c(C(=O)N(C)C)nn2c1CN(c1nc(OC[C@@]34CCCN3C[C@H](F)C4)nc3c(F)c(-c4ccc(F)c5sc(N)c(C#N)c45)c(C(F)(F)F)cc13)CC2 (atropisomer, axis not shown; (aS)) [Compound 590, 5-((S)-7-(2-amino-3-cyano-7-fluorobenzo[b]thiophen-4-yl)-8-fluoro-2-(((2R,7aS)-2-fluorotetrahydro-1H-pyrrolizin-7a(5H)-yl)methoxy)-6-(trifluoromethyl)quinazolin-4-yl)-N,N,3-trimethyl-4,5,6,7-tetrahydropyrazolo[1,5-a]pyrazine-2-carboxamide] | < 100 | < 100 | < 100 | < 100 | – | < 100 | 100 to 1000 | – | – | – | – | – | – | – | – | – | < 100 | – |
| CCN(c1nc(OC[C@@]23CCCN2C[C@H](F)C3)nc2c(F)c(-c3ccc(F)c4sc(N)c(C#N)c34)c(C(F)(F)F)cc12)[C@H]1CC(=O)N(CC(F)F)C1 (atropisomer, axis not shown) [Compound 613] | 100 to 1000 | 100 to 1000 | 100 to 1000 | 100 to 1000 | < 100 | < 100 | ≤ 100 | – | – | – | – | – | – | – | – | – | – | – |
| CCN(c1nc(OC[C@@]23CCCN2C[C@H](F)C3)nc2c(F)c(-c3ccc(F)c4sc(N)c(C#N)c34)c(C(F)(F)F)cc12)[C@H]1CCN(C(=O)C(C)C)C1 [Compound 332] | – | – | – | – | < 100 | – | 100 to 1000 | – | – | – | – | – | < 100 | < 100 | 100 to 1000 | < 100 | – | < 100 |
| CC(=O)N1C[C@H](N(C)c2nc(OC[C@@]34CCCN3C[C@H](F)C4)nc3c(F)c(-c4ccc(F)c5sc(N)c(C#N)c45)c(C(F)(F)F)cc23)C[C@@H]1C [Compound 298] | – | – | – | – | < 100 | – | 100 to 1000 | – | – | – | – | < 100 | 100 to 1000 | 100 to 1000 | 100 to 1000 | 100 to 1000 | – | – |
| [2H]C1([2H])O[C@@H]2C[C@H]1N(c1nc(OC[C@@]34CCCN3C[C@H](F)C4)nc3c(F)c(-c4ccc(F)c5sc(N)c(C#N)c45)c(C(F)(F)F)cc13)C2 [Compound 371] | – | – | – | – | < 100 | – | 1000 to 10000 | – | – | – | – | < 100 | 100 to 1000 | 100 to 1000 | 100 to 1000 | 100 to 1000 | – | – |
